Experimental findings from ChEMBL document CHEMBL1153292, “Atropisomeric small molecule Bcl-2 ligands: determination of bioactive conformation” (Bioorg Med Chem Lett, 2009) are described below.

The experiment deals with Apoptosis regulator Bcl-2 (Homo sapiens, UniProt P10415). Description: Inhibition of GST fused Bcl-2 binding to biotinylated 16 mer BH3 peptide by HTRF-LANCE assay. In general terms: Time-resolved FRET reads energy transfer from a long-lived donor to a nearby acceptor.
Apoptosis regulator Bcl-2, sequence (P10415 whole entry, the tested form may be a part): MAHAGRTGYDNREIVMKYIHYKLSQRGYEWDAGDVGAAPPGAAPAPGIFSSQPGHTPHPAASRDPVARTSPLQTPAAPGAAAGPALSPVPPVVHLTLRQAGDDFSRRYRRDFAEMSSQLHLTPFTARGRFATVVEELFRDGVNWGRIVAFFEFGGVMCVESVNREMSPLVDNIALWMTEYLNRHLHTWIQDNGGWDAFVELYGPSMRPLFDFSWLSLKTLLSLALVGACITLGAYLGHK

By IC50 is commonly meant the midpoint of a concentration-inhibition curve. Read a high IC50 as weaker potency in that assay. With `CCCCN(CCCC)C(=O)c1nn(-c2cccc(C)c2C(=O)N2Cc3ccccc3C[C@H]2CN)c(C)c1Cl`, the IC50 worked out at 0.042 µM.
With `Cc1cccc(-n2nc(C(=O)N(c3ccccc3)c3ccccc3)cc2C)c1C(=O)N1Cc2ccccc2C[C@@H]1CO` (atropisomer aR; form 3), the 50% inhibitory concentration (IC50) is 0.39 µM.
As to `Cc1cccc(-n2nc(C(=O)N(c3ccccc3)c3ccccc3)cc2C)c1C(=O)N1Cc2ccccc2C[C@@H]1CO` (atropisomer aR; form 2), the IC50 amounted to 6.1 µM.
On to `CCCCN(CCCC)C(=O)c1cc(C)n(-c2cccc(C)c2C(=O)N2Cc3ccccc3C[C@H]2CN)n1`, for which the IC50 came to 0.175 µM.
Compound `Cc1cccc(-n2nc(C(=O)N(c3ccccc3)c3ccccc3)cc2C)c1C(=O)N1Cc2ccccc2C[C@@H]1CO` (atropisomer aR; form 1) displayed a concentration for half-maximal inhibition (IC50) of 1.1 µM. This IC50 lies about 6.3-fold higher than the previous one.
Under `Cc1cccc(-n2nc(C(=O)N(c3ccccc3)c3ccccc3)cc2C)c1C(=O)N1Cc2ccccc2CC1CO` (configuration not stated) stands 0.6 µM.
In the case of `Cc1cccc(-n2nc(C(=O)N(c3ccccc3)c3ccccc3)cc2C)c1C(=O)N1Cc2ccccc2C[C@H]1CO` (atropisomer aS), the IC50 is 0.21 µM.
